In patent publication US6537986B2, “Oxazolidinone antibacterial agents having a thiocarbonyl funtionality” (Pharmacia & Upjohn Company, priority 1997, dated 2003):
≈ marks a conversion by molar mass, not a printed value. Read-outs that look alike come from different tables or passages of the source.

What was measured:
[1] = test system: Haemophilus influenzae (HINF 30063); experiment: MIC, standard agar dilution method; assay type: cell-based; conditions: Haemophilus influenzae, Table II, Mueller Hinton agar, incubated overnight at 35° C.
Method: (§1) MIC Test Method The in vitro MICs of test compounds were determined by a standard agar dilution method. […] Serial 2-fold dilutions of each sample are made using 1.0 ml aliquots of sterile distilled water. To each 1.0 ml aliquot of drug is added 9 ml of molten Mueller Hinton agar medium. The drug-supplemented agar is mixed, poured into 15×100 mm petri dishes, and allowed to solidify and dry prior to inoculation. Vials of each of the test organisms are maintained frozen in the vapor phase of a liquid nitrogen freezer. Test cultures are grown overnight at 35° C. on the medium appropriate for the organism. Colonies are harvested with a sterile swab, and cell suspensions are prepared in Trypticase Soy broth (TSB) to equal the turbidity of a 0.5 McFarland standard. A 1:20 dilution of each suspension is made in TSB. […] The plates are incubated overnight at 35° C. Following incubation the Minimum Inhibitory Concentration (MIC μg/ml), the lowest concentration of drug that inhibits visible growth of the organism, is read and recorded.

[2] = test system: Enterococcus faecalis (EFAE 9217); experiment: MIC, standard agar dilution method; assay type: cell-based; conditions: incubated overnight at 35° C.
Method: as §1

S. aureus (SAUR 9213) = experiment: MIC, standard agar dilution method; assay type: cell-based; conditions: Staphylococcus aureus, incubated overnight at 35° C.
Method: as §1

[3] = test system: S. epidermidis (SEPI 30593); experiment: MIC, standard agar dilution method; assay type: cell-based; conditions: Staphylococcus epidermidis, Table II, Mueller Hinton agar, incubated overnight at 35° C.
Method: as §1

S. pyogenes (SPYO 152) = experiment: MIC, standard agar dilution method; assay type: cell-based; conditions: Streptococcus pyogenes, incubated overnight at 35° C.
Method: as §1

[4] = test system: S. pneumoniae (SPNE 9912); experiment: MIC, standard agar dilution method; assay type: cell-based; conditions: Streptococcus pneumoniae, incubated overnight at 35° C.
Method: as §1

[5] = test system: Moraxella catarrhalis (MCAT 30610); experiment: MIC, standard agar dilution method; assay type: cell-based; conditions: Moraxella catarrhalis, Table II, Mueller Hinton agar, incubated overnight at 35° C.
Method: as §1

E. Faecium (EFAE 12712) = experiment: MIC, standard agar dilution method; assay type: cell-based; conditions: Enterococcus faecium; Table II; key: E. Faecium; agar dilution, Mueller Hinton agar, incubated overnight at 35° C.; read-out: EFAE 12712 MIC
Method: as §1

[6] = test system: S. epidermidis (SEPI 12084); experiment: MIC, standard agar dilution method; assay type: cell-based; conditions: Staphylococcus epidermidis, Table 1, Mueller Hinton agar, incubated overnight at 35° C., read-out: Oxazolidinone MIC Values (Gram+) SEPI 12084
Method: MIC Test Method The in vitro MICs of test compounds were determined by a standard agar dilution method. A stock drug solution of each analog is prepared in the preferred solvent, usually DMSO:H2O (1:3). Serial 2-fold dilutions of each sample are made using 1.0 ml aliquots of sterile distilled water. To each 1.0 ml aliquot of drug is added 9 ml of molten Mueller Hinton agar medium. The drug-supplemented agar is mixed, poured into 15×100 mm petri dishes, and allowed to solidify and dry prior to inoculation. Vials of each of the test organisms are maintained frozen in the vapor phase of a liquid nitrogen freezer. Test cultures are grown overnight at 35° C. on the medium appropriate for the organism. Colonies are harvested with a sterile swab, and cell suspensions are prepared in Trypticase Soy broth (TSB) to equal the turbidity of a 0.5 McFarland standard. A 1:20 dilution of each suspension is made in TSB. […] The plates are incubated overnight at 35° C. Following incubation the Minimum Inhibitory Concentration (MIC μg/ml), the lowest concentration of drug that inhibits visible growth of the organism, is read and recorded.

[7] = Table II, key: Enterococcus faecalis, Mueller Hinton agar, read-out: EFAE 9217 MIC
[8] = Table II, Mueller Hinton agar, read-out: SAUR 9213 MIC
[9] = Table II, Mueller Hinton agar, read-out: SPYO 152 MIC
[10] = Table II, Mueller Hinton agar, read-out: SPNE 9912 MIC
[11] = Enterococcus faecalis, Table 1, Mueller Hinton agar, read-out: Oxazolidinone MIC Values (Gram+) EFAE 9217
[12] = Table 1, Mueller Hinton agar, read-out: Oxazolidinone MIC Values (Gram+) SAUR 9213
[13] = Table 1, Mueller Hinton agar, read-out: Oxazolidinone MIC Values (Gram+) SPYO 152
[14] = Table 1, Mueller Hinton agar, read-out: Oxazolidinone MIC Values (Gram+) SPNE 9912

MIC [1] [µg/mL]	MIC [2, 7] [µg/mL]	MIC (S. aureus (SAUR 9213); [8]) [µg/mL]	MIC [3] [µg/mL]	MIC (S. pyogenes (SPYO 152); [9]) [µg/mL]	MIC [4, 10] [µg/mL]	MIC [5] [µg/mL]	MIC (E. Faecium (EFAE 12712)) [µg/mL]	melting point	MIC [2, 11] [µg/mL]	MIC (S. aureus (SAUR 9213); [12]) [µg/mL]	MIC (S. pyogenes (SPYO 152); [13]) [µg/mL]	MIC [4, 14] [µg/mL]	MIC [6] [µg/mL]	SMILES
2 (≈ 4.67 µM)	0.25 (≈ 0.583 µM)	0.25 (≈ 0.583 µM)	0.25 (≈ 0.583 µM)	< 0.125	< 0.125	0.5 (≈ 1.17 µM)	0.25 (≈ 0.583 µM)	110 to 111 °C (dec.)						CC(=S)NC[C@H]1CN(c2cc(F)c(N3CCN(C(=O)CO)CC3)c(F)c2)C(=O)O1 [Example 29, (S)-N-[[3-[3,5-Difluoro-4-[4-(hydroxyacetyl)-1-piperazinyl]phenyl]-2-oxo-5-oxazolidinyl]methyl]thioacetamide]
8 (≈ 23.8 µM)	1 (≈ 2.97 µM)	4 (≈ 11.9 µM)	1 (≈ 2.97 µM)	0.25 (≈ 0.743 µM)	< 0.125	2 (≈ 5.95 µM)	0.5 (≈ 1.49 µM)	214 to 215 °C						NC(=S)NC[C@H]1CN(c2ccc(-n3cncn3)c(F)c2)C(=O)O1 [Example 30]
4 (≈ 9.72 µM)	1 (≈ 2.43 µM)	2 (≈ 4.86 µM)	1 (≈ 2.43 µM)	0.25 (≈ 0.608 µM)	< 0.125	1 (≈ 2.43 µM)	1 (≈ 2.43 µM)	209 to 210 °C						NC(=S)NC[C@H]1CN(c2ccc(N3CCN(C(=O)CO)CC3)c(F)c2)C(=O)O1 [Example 31, (S)-N-[[3-[3-Fluoro-4-[4-(hydroxyacetyl)-1-piperazinyl]phenyl]-2oxo-5-oxazolidinyl]-methyl]thiourea]
8 (≈ 22.8 µM)	4 (≈ 11.4 µM)	16 (≈ 45.7 µM)	2 (≈ 5.71 µM)	0.25 (≈ 0.713 µM)	0.25 (≈ 0.713 µM)	2 (≈ 5.71 µM)	2 (≈ 5.71 µM)	214 to 215 °C (dec.)						NC(=S)NC[C@H]1CN(c2ccc3c(c2)CCN3C(=O)CO)C(=O)O1 [Example 32, (S)-N-[[3-[1-(Hydroxyacetyl)-5-indolinyl]-2-oxo-5-5 oxazolidinyl]methyl]thiourea]
4 (≈ 10.3 µM)	4 (≈ 10.3 µM)	4 (≈ 10.3 µM)	2 (≈ 5.17 µM)	0.25 (≈ 0.647 µM)	0.25 (≈ 0.647 µM)	2 (≈ 5.17 µM)	1 (≈ 2.59 µM)	212 to 213 °C						NC(=S)NC[C@H]1CN(c2ccc(N3CC[S+]([O-])CC3)c(F)c2)C(=O)O1 [Example 33, (S)-N-[[3-[3-Fluoro-4-(4-thiomorpholinyl)phenyl]-2-oxo-5-oxazolidinyl]methyl]thiourea, thiomorpholine S-oxide]
									8 (≈ 19.1 µM)	16 (≈ 38.1 µM)	1 (≈ 2.38 µM)	0.5 (≈ 1.19 µM)	4 (≈ 9.54 µM)	CC(=O)NC[C@H]1CN(c2ccc(N3CCC4(CC3)NC(=O)NC4=O)c(F)c2)C(=O)O1 [reference compound]
									2 (≈ 5.93 µM)	2 (≈ 5.93 µM)	1 (≈ 2.96 µM)	0.5 (≈ 1.48 µM)	1 (≈ 2.96 µM)	CC(=O)NC[C@H]1CN(c2ccc(N3CCOCC3)c(F)c2)C(=O)O1 [reference compound]
									1 (≈ 2.3 µM)	0.5 (≈ 1.15 µM)	0.25 (≈ 0.575 µM)	0.13 (≈ 0.299 µM)	0.25 (≈ 0.575 µM)	CC(=O)NC[C@H]1CN(c2ccc(N3CCN(c4nnc(C)s4)CC3)c(F)c2)C(=O)O1 [reference compound]
